Data set [1] has as its system Plutella xylostella. The experiment in a line: Insecticidal activity against third-instar larvae of Plutella xylostella (diamondback moth) in cabbage leaf disk after 4 to 7 days by leaf dipping method. The format is functional, organism-based.
Data set [2] has as its system Spodoptera litura. The experiment in a line: Insecticidal activity against fifth-instar larvae of Spodoptera litura in cabbage leaf disk after 4 to 7 days by leaf dipping method. The format is functional, organism-based.
The subject of data set [3] is Plutella xylostella. The data set can be described thus: Insecticidal activity against third-instar larvae of organophosphate-resistant Plutella xylostella (diamondback moth) in cabbage leaf disk after 4 to 7 days by leaf dipping method. The format is functional, organism-based.
Data set [4] has as its system Spodoptera litura. The data set can be described thus: Insecticidal activity against sixth-instar larvae of Spodoptera litura assessed as sustained body contraction at 2.4 ug/larvae after 24 hr. The format is functional, organism-based.
The subject of data set [5] is Plutella xylostella. The experiment in a line: Insecticidal activity against third-instar larvae of benzoylphenylurea-resistant Plutella xylostella (diamondback moth) in cabbage leaf disk after 4 to 7 days by leaf dipping method. It counts as functional, organism-based.
Data set [6] deals with Plutella xylostella. The experiment in a line: Insecticidal activity against third-instar larvae of insecticide-resistant Plutella xylostella (diamondback moth) in cabbage leaf disk after 4 to 7 days by leaf dipping method. It counts as functional, organism-based.
Data set [7] has as its system Spodoptera litura. The data set can be described thus: Insecticidal activity against sixth-instar larvae of Spodoptera litura assessed as sustained body contraction at 0.24 ug/larvae after 24 hr. The format is functional, organism-based.
In data set [8] the test system is Spodoptera litura. The data set can be described thus: Insecticidal activity against fifth-instar larvae of Spodoptera litura assessed as thickening and shortening without convulsion at 100 mg/l after 24 hr. It counts as functional, organism-based.
For data set [9], the system named is Spodoptera litura. The data set can be described thus: Insecticidal activity against fifth-instar larvae of Spodoptera litura assessed as gradual contraction of insect body at 100 mg/l after 24 hr. It counts as functional, organism-based.
In another data set the test system is Encarsia formosa. The data set can be described thus: Toxicity in adult Encarsia formosa after 2 days by dry film method. The format is organism-based. Particulars: in vivo, 48 h.
For data set [10], the system named is Coccinella septempunctata brucki. The data set can be described thus: Toxicity in adult of Coccinella septempunctata brucki after 4 days by insect dipping method. It counts as organism-based. As to conditions: in vivo, 96 h.
The test system of a further data set is Harmonia axyridis. The experiment in a line: Toxicity in adult of Harmonia axyridis after 4 days by insect dipping method. Particulars: in vivo, 96 h. The format is organism-based.
Another data set has as its system Adoxophyes honmai. The experiment in a line: Insecticidal activity against fourth-instar larvae of Adoxophyes honmai in tea leaf. It counts as functional, organism-based.
In another data set the test system is Homona magnanima. The experiment in a line: Insecticidal activity against fourth-instar larvae of Homona magnanima in tea leaf. It counts as functional, organism-based.
The test system of another data set is Chilo suppressalis. The experiment in a line: Insecticidal activity against third-instar larvae of Chilo suppressalis (rice stem borer) […]. The format is functional, organism-based.
The test system of another data set is Hellula undalis. The experiment in a line: Insecticidal activity against third-instar larvae of Hellula undalis in cabbage leaf. The format is functional, organism-based.
The subject of another data set is Pieris rapae crucivora. The data set can be described thus: Insecticidal activity against second to third-instar larvae of Pieris rapae crucivora. The format is functional, organism-based.
For another data set, the system named is Agrotis segetum. The data set can be described thus: Insecticidal activity against two to third-instar larvae of Agrotis segetum in cabbage leaf. It counts as functional, organism-based.
A further data set relates to Helicoverpa armigera. The data set can be described thus: Insecticidal activity against Helicoverpa armigera. It counts as functional, organism-based.
The subject of another data set is Autographa nigrisigna. The data set can be described thus: Insecticidal activity against third-instar larvae of Autographa nigrisigna in cabbage leaf. The format is functional, organism-based.
The next data set deals with Misumenops. The experiment in a line: Toxicity in adult of Misumenops tricuspidatus after 4 days by insect dipping method. It counts as organism-based. As to conditions: in vivo, 96 h.
The subject of the next data set is Pardosa pseudoannulata. The data set can be described thus: Toxicity in adult of Pardosa pseudoannulata after 4 days by insect dipping method. Particulars: in vivo, 96 h. It counts as organism-based.
The test system of a further data set is Phytoseiulus persimilis. The data set can be described thus: Toxicity in adult of Phytoseiulus persimilis after 2 days by spraying on food and insect method. It counts as organism-based. As to conditions: in vivo, 48 h.
A further data set has as its system Neoseiulus cucumeris. The data set can be described thus: Toxicity in adlult of Neoseiulus cucumeris after 2 days by spraying on food and insect method. Particulars: in vivo, 48 h. The format is organism-based.
Another data set relates to Aphidoletes aphidimyza. The data set can be described thus: Toxicity in larvae of Aphidoletes aphidimyza after 2 days by spraying on food and insect method. Particulars: in vivo, 48 h. The format is organism-based.
In the next data set the test system is Chrysoperla carnea. The experiment in a line: Toxicity in larvae of Chrysoperla carnea after 2 days by spraying on food and insect method. The format is organism-based. As to conditions: in vivo, other, 48 h.
A further data set has as its system Orius strigicollis. The experiment in a line: Toxicity in adult of Orius strigicollis after 2 days by spraying on food and insect method. It counts as organism-based. Particulars: in vivo, 48 h.
The test system of the next data set is Cotesia glomerata. The experiment in a line: Toxicity in adult Cotesia glomerata after 2 days by dry film method. It counts as organism-based. Particulars: in vivo, 48 h.
The subject of the next data set is Aphidius colemani. The experiment in a line: Toxicity in adlult of Aphidius colemani after 2 days by dry film method. The format is organism-based. As to conditions: in vivo, 48 h.
Data set [11] has as its system Plutella xylostella. The experiment in a line: Insecticidal activity against third-instar larvae of synthetic pyrethroid-resistant Plutella xylostella (diamondback moth) in cabbage leaf disk after 4 to 7 days by leaf dipping method. The format is functional, organism-based.
Data set [12] has as its system Plutella xylostella. The experiment in a line: Insecticidal activity against third-instar larvae of carbamate-resistant Plutella xylostella (diamondback moth) in cabbage leaf disk after 4 to 7 days by leaf dipping method. It counts as functional, organism-based.

Calls of active or inactive are those of the source. The rule behind the calls is not given here.

Regarding `Cc1cc(Cl)ccc1NC(=O)c1cccc(Br)c1C(=O)NC(C)C`, the EC50 with Plutella xylostella [1] is recorded as 1 mgAi/L; in the data set on Spodoptera litura [2], 10 mgAi/L.

As for `Cc1cc(C(F)(C(F)(F)F)C(F)(F)F)ccc1NC(=O)c1cccc(I)c1C(=O)NC(C)(C)C`, the EC50 in the data set with Plutella xylostella [1] and in the data set on Spodoptera litura [2] was 0.3 mgAi/L in each case.

Turning to `CCCSP(=S)(OCC)Oc1ccc(Cl)cc1Cl` (stereo unspecified) [PROTHIOFOS], the figures for the EC50 in the data set on Plutella xylostella [1] and with Plutella xylostella [3] were 3.78 mgAi/L and 24.2 mgAi/L, respectively.

As to `CC(C)[C@@]1(O)[C@@H](OC(=O)c2cc[nH]c2)[C@@]2(O)[C@]3(C)C[C@@]4(O)O[C@@]5([C@H](O)[C@@H](C)CC[C@]35O)[C@@]2(O)[C@@]41C`, the result with Spodoptera litura [4] was Active.

For `Cc1cc(Cl)ccc1NC(=O)c1cccc([N+](=O)[O-])c1C(=O)NC(C)C`, the EC50 in the data set with Plutella xylostella [1] and in the data set with Spodoptera litura [2] was 10 mgAi/L in each case.

In the case of `O=C(NC(=O)c1c(F)cccc1F)Nc1ccc(Oc2ccc(C(F)(F)F)cc2Cl)cc1F` [FLUFENOXURON], the EC50 with Plutella xylostella [5] was 233 mgAi/L; in the data set with Plutella xylostella [1], 0.05 mgAi/L.

Regarding `Cc1cc(Cl)ccc1NC(=O)c1ccc(Cl)cc1C(=O)NC(C)C`, the EC50 in the data set on Plutella xylostella [1] is reported as 5 mgAi/L; in the data set on Spodoptera litura [2], over 500 mgAi/L.

`Cc1cc(Cl)ccc1NC(=O)c1ccccc1C(=O)NC(C)C`: the EC50 in the data set with Plutella xylostella [1] stood at 3 mgAi/L; in the data set on Spodoptera litura [2], 10 mgAi/L.

For the molecule `Cc1cc(Cl)ccc1NC(=O)c1cccc(I)c1C(=O)NC(C)C`, the values for the EC50 in the data set with Plutella xylostella [1] and in the data set on Spodoptera litura [2] were 0.3 mgAi/L and 3 mgAi/L, respectively.

With `Cc1cc(Cl)ccc1NC(=O)c1cc(Cl)ccc1C(=O)NC(C)C`, the EC50 with Plutella xylostella [1] is 50 mgAi/L; with Spodoptera litura [2], over 500 mgAi/L.

On to `Cc1cc(C(F)(C(F)(F)F)C(F)(F)F)ccc1NC(=O)c1cccc(I)c1C(=O)NC(C)(C)CS(C)(=O)=O` [FLUBENDIAMIDE], for which the EC50 in the data set with Plutella xylostella [6] was 0.002 mgAi/L; in the data set on Plutella xylostella [1], 0.001 mgAi/L; in the data set with Spodoptera litura [2] it was 0.03 mgAi/L; with Adoxophyes honmai, 0.38 mgAi/L; in the data set on Homona magnanima it was 0.58 mgAi/L; in the data set with Chilo suppressalis it was under 0.01 mgAi/L. In addition, the EC50 in the data set with Hellula undalis turned out to be 0.01 mgAi/L; with Pieris rapae crucivora it was 0.03 mgAi/L; with Agrotis segetum it was 0.18 mgAi/L; in the data set on Autographa nigrisigna it was 0.02 mgAi/L. For the same molecule, the result in the data set with Spodoptera litura [7], with Spodoptera litura [8], with Spodoptera litura [9] and in the data set on Helicoverpa armigera was Active. Moreover, the EC30 in the data set with Encarsia formosa is recorded as over 400 mgAi/L; in [10], over 200 mgAi/L; in the data set on Harmonia axyridis, over 200 mgAi/L; in the data set with Misumenops, over 200 mgAi/L; in the data set on Pardosa pseudoannulata it was over 100 mgAi/L; with Phytoseiulus persimilis it was over 200 mgAi/L. In addition, the EC30 with Neoseiulus cucumeris is on record as over 200 mgAi/L; in the data set with Aphidoletes aphidimyza it was over 100 mgAi/L; in the data set on Chrysoperla carnea, over 100 mgAi/L; with Orius strigicollis, over 100 mgAi/L; in the data set with Cotesia glomerata, over 100 mgAi/L; with Aphidius colemani, over 400 mgAi/L.

Take `Cc1ccc(Cl)cc1NC(=O)c1cccc(I)c1C(=O)NC(C)C`: the figures for the EC50 in the data set with Plutella xylostella [1] and in the data set with Spodoptera litura [2] were 3 mgAi/L and 10 mgAi/L, respectively.

Consider `COc1ccc(NC(=O)c2cccc(I)c2C(=O)NC(C)C)c(C)c1`, for which the results for the EC50 with Plutella xylostella [1] and with Spodoptera litura [2] were 10 mgAi/L and 30 mgAi/L, respectively.

For `Cc1c(Cl)cccc1NC(=O)c1cccc(I)c1C(=O)NC(C)C`, the EC50 in the data set on Plutella xylostella [1] was found to be 3 mgAi/L; in the data set with Spodoptera litura [2], 10 mgAi/L.

For the molecule `Cc1cc(C(F)(C(F)(F)F)C(F)(F)F)ccc1NC(=O)c1cccc(I)c1C(=O)NC(C)C`, the EC50 in the data set with Plutella xylostella [1] worked out at 0.1 mgAi/L; with Spodoptera litura [2], 0.3 mgAi/L.

Consider `Cc1cc(Cl)ccc1NC(=O)c1cccc(Cl)c1C(=O)NC(C)C`, for which the EC50 with Plutella xylostella [1] turned out to be 1 mgAi/L; in the data set with Spodoptera litura [2], 10 mgAi/L.

Consider `CC(=O)NCC(C)(C)NC(=O)c1c(I)cccc1C(=O)Nc1ccc(C(F)(C(F)(F)F)C(F)(F)F)cc1C`, for which the EC50 in the data set with Spodoptera litura [2] came out at 0.1 mgAi/L.

Consider `CC1(C)C(/C=C(\Cl)C(F)(F)F)C1C(=O)OC(C#N)c1cccc(Oc2ccccc2)c1` (stereo unspecified) [CYHALOTHRIN], for which the values for the EC50 in the data set with Plutella xylostella [11] and in the data set with Plutella xylostella [1] were 869 mgAi/L and 0.24 mgAi/L, respectively.

In the case of `Cc1cc(OC(F)(F)F)ccc1NC(=O)c1cccc(I)c1C(=O)NC(C)C`, the EC50 in the data set with Plutella xylostella [1] is 0.3 mgAi/L; with Spodoptera litura [2], 1 mgAi/L.

Turning to `CNC(=O)ON=C(C)SC` [METHOMYL], the EC50 in the data set on Plutella xylostella [1] is 14.5 mgAi/L; in the data set on Plutella xylostella [12], 287 mgAi/L.

For `Cc1cc(Cl)ccc1NC(=O)c1c(Cl)cccc1C(=O)NC(C)C`, the figures for the EC50 with Plutella xylostella [1] and in the data set on Spodoptera litura [2] were 10 mgAi/L and over 500 mgAi/L, respectively.

In the case of `Cc1cc(Cl)ccc1NC(=O)c1cccc(F)c1C(=O)NC(C)C`, the EC50 in the data set on Plutella xylostella [1] is 1 mgAi/L; with Spodoptera litura [2], over 500 mgAi/L.

The values are drawn from ChEMBL document CHEMBL3046512, “Flubendiamide, a Novel Insecticide Highly Active against Lepidopterous Insect Pests” (J Pestic Sci, 2005).
